From patent US12502380B2, “MrgprX2 antagonists for the treatment of inflammatory disorders” (Dermira, Inc., priority 2019, dated 2025)

Target: T1, Human MrgprX2 (Homo sapiens, UniProt Q96LB1)
T1 construct: expressed in transfected cells
T1 sequence (Q96LB1 1-330): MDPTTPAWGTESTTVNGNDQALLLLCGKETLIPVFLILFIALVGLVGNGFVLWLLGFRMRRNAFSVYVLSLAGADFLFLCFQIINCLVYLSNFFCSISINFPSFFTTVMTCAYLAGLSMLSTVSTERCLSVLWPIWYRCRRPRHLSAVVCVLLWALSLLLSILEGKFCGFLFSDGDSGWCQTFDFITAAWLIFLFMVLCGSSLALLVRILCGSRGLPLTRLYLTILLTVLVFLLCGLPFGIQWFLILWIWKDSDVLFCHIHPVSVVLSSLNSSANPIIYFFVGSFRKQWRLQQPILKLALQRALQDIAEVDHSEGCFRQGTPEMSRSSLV
Assay: Human MrgprX2 antagonist FLIPR intracellular calcium mobilization assay
Assay type: cell-based
Settings: antagonist activity, recombinant hMrgpMRGPRX2 expressing cells, read-out: Human MrgprX2 Antagonist pIC50 (converted)
Text: Potent and selective hMrgpMRGPRX2 compounds have been generated from compounds identified during a high throughput screening (HTS) campaign and followed up with cycles of structure activity based medicinal chemistry efforts. These compounds were characterized in recombinant hMrgpMRGPRX2 expressing cells for their antagonist activity and the potency was confirmed in the human mast cell line LAD-2, where the target is endogenously expressed. The assays used to determine potencies are functional read-out looking at intracellular calcium mobilization using the FLIPR™ technology. In these FLIPR assays, we test the identified compounds using recombinant cellular systems expressing mouse MrgprB2, mouse MrgprA1, gerbil MrgpMRGPRX2 orthologue, Chinese hamster MrgpMRGPRX2 orthologue and cynomolgus monkey MrgpMRGPRX2 orthologue, respectively for orthologue activity.

Compound | IC50 [µM]
CCN(C[C@@H](C)O)C(=O)Nc1ncc(Oc2ccc(F)cc2)s1 [Compound E204] | 0.00316
C[C@H](O)CN(C)C(=O)Nc1ncc(CC2CCCC2)s1 [Compound E138] | 2
CCN(C[C@@H](C)O)C(=O)Nc1ncc(Cc2cccc(F)c2)s1 [Compound E118] | 0.0251
CCN(C[C@H](C)O)C(=O)Nc1ncc(Cc2cccc(F)c2)s1 [Compound E117] | 0.000631
C[C@H](O)CN(C)C(=O)Nc1ncc(Oc2cc(F)ccc2C#N)s1 [Compound E195] | 2
CCN(C[C@H](C)O)C(=O)Nc1ncc(Oc2ccnc(C#N)c2)s1 [Compound E181] | 2.51
C[C@]1(C(=O)Nc2ncc(Cc3cc(F)cc(F)c3)s2)CCOC1 (single isomer, unassigned) [Compound E053, N-[5-[(3,5-difluorophenyl)methyl]thiazol-2-yl]-3-methyl-tetrahydrofuran-3-carboxamide] | 0.00794
NS(=O)(=O)N1CCC[C@@H]1C(=O)Nc1ncc(Cc2cccc(F)c2)s1 [Compound E057, (2R)—N-[5-[(3-fluorophenyl)methyl]thiazol-2-yl]-1-sulfamoyl-pyrrolidine-2-carboxamide] | 0.0316
NS(=O)(=O)N1CCCC[C@@H]1C(=O)Nc1ncc(Cc2cccc(F)c2)s1 [Compound E066] | 0.0316
CC(C)(C)OC(=O)N1CCC[C@@H]1C(=O)Nc1ncc(Oc2ccccc2)s1 [Compound E082, tert-butyl (2R)-2-[(5-phenoxythiazol-2-yl)carbamoyl]pyrrolidine-1-carboxylate] | 1.26
O=C(CN1CCCCC1)Nc1ncc(Cc2ccccc2F)s1 [Compound E013] | 0.398
CN(CC1(O)CC1)C(=O)Nc1ncc(Cc2cccc(F)c2)s1 [Compound E122] | 0.00631
CCN(C[C@H](C)O)C(=O)Nc1ncc(Oc2ccc(C)nc2)s1 [Compound E157] | 0.126
CN(C)C(C)(C)C(=O)Nc1ncc(Cc2ccccc2F)s1 [Compound E011] | 0.501
CC(C)(C)OC(=O)N1CCC[C@]1(C)C(=O)Nc1ncc(Cc2cccc(F)c2)s1 [Compound E037, tert-butyl (2R)-2-[[5-[(3-fluorophenyl)methyl]thiazol-2-yl]carbamoyl]-2-methyl-pyrrolidine-1-carboxylate] | 0.251
CN(CCO)C(=O)Nc1ncc(Oc2ccc(F)cc2)s1 [Compound E205] | 0.251
CCN(C[C@H](C)O)C(=O)Nc1ncc(Oc2cncnc2)s1 [Compound E201] | 2.51
CC(C)C(=O)Nc1ncc(Cc2ccc(F)cc2F)s1 [Compound E042] | 0.0398
CCN(C[C@H](C)O)C(=O)Nc1ncc(Oc2ccc(C#N)nc2)s1 [Compound E212] | 0.158
CC1(C(=O)Nc2ncc(Oc3ccc(F)cc3)s2)CCOCC1 [Compound E077] | 0.0398
CC1(C(=O)Nc2ncc(Cc3ccccc3F)s2)CCOC1 (stereo not shown) [Compound E014] | 0.631
CN(CC(O)C(F)(F)F)C(=O)Nc1ncc(Cc2cccc(F)c2)s1 (stereo not shown) [Compound E105] | 0.0158
O=C(Nc1ncc(Cc2cccc(F)c2)s1)N1CCOC[C@H]1CO [Compound E123] | 7.94

Compound | IC50 [µM]
O=C(Nc1ncc(Cc2cccc(F)c2)s1)N1CC(F)(F)C[C@@H]1CO [Compound E127] | 0.0398
CCN(C[C@H](C)O)C(=O)Nc1ncc(Oc2cc(C#N)ccc2F)s1 [Compound E193] | 0.0398
C[C@H](C(=O)Nc1ncc(Cc2cccc(F)c2)s1)N(C)S(N)(=O)=O [Compound E068] | 0.631
CCN(C[C@@H](C)O)C(=O)Nc1ncc(Oc2ccc(C#N)cc2)s1 [Compound E211] | 0.398
C[C@@H](O)CN(C)C(=O)Nc1ncc(Cc2ccccc2F)s1 [Compound E103] | 1.26
CC(C)C(=O)Nc1nc(-c2ccccc2)cs1 [Compound E039] | 6.31
CCN(C[C@H](C)O)C(=O)Nc1ncc(Oc2ccc(C#N)cc2)s1 [Compound E147, 3-[5-(4-cyanophenoxy)thiazol-2-yl]-1-ethyl-1-[(2S)-2-hydroxypropyl]urea] | 0.00316
O=C(Nc1ncc(Cc2cccc(F)c2)s1)N1CCC1CO (stereo not shown) [Compound E126] | 0.631
CC(C)C(=O)Nc1ncc(Cc2ccc(F)c(F)c2)s1 [Compound E043] | 0.00794
CCN(C[C@H](C)O)C(=O)Nc1ncc(Oc2cncc(F)c2)s1 [Compound E158] | 0.00126
CC(C)NC(=O)c1ncc(Cc2cccc(F)c2)s1 [Compound E217, 5-[(3-fluorophenyl)methyl]-N-isopropyl-thiazole-2-carboxamide] | 2
C[C@H](O)CN(C)C(=O)Nc1ncc(Cc2cccc(F)c2F)s1 [Compound E137] | 0.01
CCN(C[C@H](C)O)C(=O)Nc1ncc(Oc2ccc(CC#N)cc2)s1 [Compound E213] | 1.26
CC1(C(=O)Nc2ncc(Cc3cc(F)cc(F)c3)s2)COC1 [Compound E047] | 0.0251
C[C@H](O)CN(C)C(=O)Nc1ncc(Oc2cccc(C#N)c2)s1 [Compound E159] | 0.01
N#Cc1ccc(Oc2cnc(NC(=O)[C@H]3CCCN3S(N)(=O)=O)s2)cc1 [Compound E091, (2R)—N-[5-(4-cyanophenoxy)thiazol-2-yl]-1-sulfamoyl-pyrrolidine-2-carboxamide] | 1.58
NS(=O)(=O)N1CCC[C@@H]1C(=O)Nc1ncc(Oc2ccc(F)cc2)s1 [Compound E089, (2R)—N-[5-(4-fluorophenoxy)thiazol-2-yl]-1-sulfamoyl-pyrrolidine-2-carboxamide] | 0.0251
CC1(C(=O)Nc2ncc(Cc3cc(F)ccc3F)s2)CCOCC1 [Compound E092, N-[5-[(2,5-difluorophenyl)methyl]thiazol-2-yl]-4-methyl-tetrahydropyran-4-carboxamide] | 0.1
C[C@H](O)CN(C)C(=O)Nc1ncc(Cc2cc(F)ccc2F)s1 [Compound E136] | 0.00398
CN(C[C@H](O)C(F)(F)F)C(=O)Nc1ncc(Cc2cccc(F)c2)s1 [Compound E109] | 0.0251
CCN(C[C@H](C)O)C(=O)Nc1ncc(Oc2ccc(F)cc2)s1 [Compound E154] | 0.000631
O=C(Nc1ncc(Cc2ccccc2F)s1)C1CCOC1 (stereo not shown) [Compound E008] | 3.98
C[C@H](O)CN(C)C(=O)Nc1ncc(Oc2cccc(C#N)c2F)s1 [Compound E198] | 0.398

Compound | IC50 [µM]
C[C@H](O)CN(C)C(=O)Nc1ncc(Cc2c(F)cccc2F)s1 [Compound E142] | 1.58
CC(F)(F)C(=O)Nc1ncc(Cc2ccccc2F)s1 [Compound E022] | 5.01
CCN(C[C@H](C)O)C(=O)Nc1ncc(Oc2cncc(C)c2)s1 [Compound E178] | 0.0316
CCN(C[C@H](C)O)C(=O)Nc1cnc(Oc2cc(F)cc(F)c2)s1 [Compound E215] | 7.94
CN(CC(=O)Nc1ncc(Cc2cccc(F)c2)s1)S(N)(=O)=O [Compound E067] | 10
CCN(C[C@H](C)O)C(=O)Nc1ncc(Oc2ccc(C(F)(F)F)cc2)s1 [Compound E161] | 0.316
C[C@@]1(C(=O)Nc2ncc(Cc3cccc(Cl)c3)s2)CCOC1 (single isomer, unassigned) [Compound E050, N-[5-[(3-chlorophenyl)methyl]thiazol-2-yl]-3-methyl-tetrahydrofuran-3-carboxamide] | 0.0631
Cc1nc(NC(=O)C(C)C)sc1Cc1ccccc1 [Compound E040] | 0.631
O=C(Nc1ncc(Cc2cccc(F)c2)s1)N1CC[C@H](CO)C1 [Compound E112] | 0.794
CC(C)C(=O)Nc1ncc(Cc2cc(F)cc(F)c2)s1 [Compound E041] | 0.002
C[C@H](O)CN(C)C(=O)Nc1ncc(Oc2cccnc2)s1 [Compound E167] | 3.16
CC1(C(=O)Nc2ncc(Cc3cccc(F)c3)s2)CCOC1 (stereo not shown) [Compound E015, N-[5-[(3-fluorophenyl)methyl]thiazol-2-yl]-3-methyl-tetrahydrofuran-3-carboxamide] | 0.126
Cc1cccc(Cc2cnc(NC(=O)C3(C)CCOCC3)s2)c1 [Compound E024] | 0.398
CCN(C[C@H](C)O)C(=O)Nc1ncc(Oc2ccc(C(=O)OC)cc2)s1 [Compound E214] | 3.16
C[C@H](O)CN(C)C(=O)Nc1ncc(Oc2ccc(C#N)c(F)c2)s1 [Compound E164] | 0.00316
CN(CCO)C(=O)Nc1ncc(Cc2cccc(F)c2)s1 [Compound E132] | 2.51
CC(O)(C(=O)Nc1ncc(Cc2cccc(F)c2)s1)C(F)(F)F (stereo not shown) [Compound E025] | 0.2
CC1(C(=O)Nc2ncc(Cc3ccc(F)cc3)s2)CCOCC1 [Compound E001, N-[5-[(4-fluorophenyl)methyl]thiazol-2-yl]-4-methyl-tetrahydropyran-4-carboxamide] | 0.398
C[C@@H](O)CN(C)C(=O)Nc1ncc(Cc2cccc(F)c2)s1 [Compound E100] | 0.251
CC(C)(C#N)C(=O)Nc1ncc(Cc2cccc(Cl)c2)s1 [Compound E034] | 0.158
C[C@@]1(C(=O)Nc2ncc(Cc3cccc(F)c3)s2)CCOC1 (single isomer, unassigned) [Compound E048, N-[5-[(3-fluorophenyl)methyl]thiazol-2-yl]-3-methyl-tetrahydrofuran-3-carboxamide] | 0.126
